# Experimental data as given in patent US20240382612A1, “BIOACTIVE CONJUGATE, PREPARATION METHOD THEREFOR AND USE THEREOF” (priority 2017, published 2024).
# Columns and labels:
# Type in all cases: in vivo, Balb/c-nu mice
# [1] = test system: human gastric cancer cell line NCI-N87; test: Experimental example 1: NCI-N87 gastric cancer subcutaneous xenograft, tumor inhibition; conditions: D21 after administration; IV, BIW×3W; BT001021 and Immu-132 3 mg/kg, toxins T-030 and SN-38 equimolar to ADC
# Method: (§1) Tumor-bearing mice (6 mice/group) with tumor volume of 100-200 mm^3 were randomly grouped (the number of groups was determined according to sample number). The administration volume was 10 ml/kg, and the administration route was tail intravenous injection. The mice were administered twice a week, and tumor diameter was measured with a vernier caliper, and tumor volume was calculated based on the following calculation formula: V=0.5 a×b^2, wherein a and b stand for the long diameter and short diameter of a tumor respectively. Animal deaths were observed and recorded every day.
# (§2) The tumor growth inhibition rate TGI (%) was calculated from the following formula to evaluate tumor inhibitory effect of antibody drug conjugates:
# (§3) Specifically, in the experimental examples 1 and 2, tumor-bearing mice models were constructed by subcutaneous xenograft of a human gastric cancer cell line NCI-N87 or a human triple negative breast cancer cell line HCC1806. After the tumor volume was about 100 mm^3, the mice were randomly grouped, and intravenously administered with BT001021 twice a week for a total of 6 times. Changes in tumor volume and animal body weight were measured twice a week to evaluate the efficacy (tumor inhibitory effect) of the antibody drug conjugate on tumor-bearing mice.
# NCI-N87 cells were cultured in a 1640 culture medium containing 10% fetal bovine serum at 37° C. and 5% CO2. NCI-N87 cells in the exponential growth stage were collected, resuspended in PBS to a suitable concentration, and inoculated subcutaneously into female Balb/c-nu mice to construct gastric cancer models. When the mean tumor volume was about 90 mm^3, the mice were randomly grouped into a physiological saline group, a BT001021 (3 mg/kg, IV, BIW×3W) group, a positive drug Immu-132 (3 mg/kg, IV, BIW×3W) group, a T030 group and a SN38 group according to the tumor size, followed by tail intravenous injection of corresponding drugs twice a week for a total of 6 times. After administration, the tumor volume and body weight of the mice were observed and measured regularly.
# [2] = test system: human breast cancer cell line HCC1806; test: Experimental example 2: HCC1806 breast cancer subcutaneous xenograft, tumor inhibition; conditions: 10 mg/kg, IV, BIW×3W
# Method: as §1, §2, §3
# HCC1806 cells were cultured in a 1640 culture medium containing 10% fetal bovine serum at 37° C. and 5% CO2. HCC1806 cells in the exponential growth stage were collected, resuspended in PBS in a suitable concentration, and inoculated subcutaneously into female Balb/c-nu to construct breast cancer models. When the mean tumor volume was about 130 mm^3, the mice were randomly grouped into a physiological saline group, a BT001021 (10 mg/kg, IV, BIW×3W) group and a positive drug Immu-132 (10 mg/kg, IV, BIW×3W) group according to the tumor size, followed by tail intravenous injection of corresponding drugs twice a week for a total of […]. After administration, the tumor volume of the mice was observed and measured regularly.
# [3] = test system: human non-small cell lung cancer cell line HCC827; test: Experimental example 3: HCC827 non-small cell lung cancer subcutaneous xenograft, tumor inhibition; conditions: D21 after administration; 10 mg/kg, IV, BIW×3W
# Method: as §1, §2
# The experimental example 3 was used to evaluate the inhibitory effect of BT001021 and BT001035 on proliferation of tumor-bearing mice models constructed by subcutaneous xenograft human tumor cells of HCC827 non-small cell lung cancer. […] Then changes in tumor volume and animal body weight were measured twice a week to calculate the efficacy (tumor inhibitory effect) of BT001021 and BT001035 on the tumor-bearing mice.
# HCC827 cells were cultured in a 1640 culture medium containing 10% fetal bovine serum at 37° C. and 5% CO2. […] After administration, the tumor volume and body weight of the mice were observed and measured regularly. […]
substance,measurement,setting,value
"Immu-132: positive drug; ADC prepared according to example 2 of WO2015/012904A2, DAR=5.4",Tumor Volume (mm^3) (x ± S),[1],259.04 ± 42.41 mm^3
same,Tumor growth inhibition rate (%),[1],46.46%
same,tumor growth of xenograft model mice (result in words),[2],did not show significant inhibitory activity
same,Tumor Volume (mm^3) (x ± S),[2]; D17 after administration,2347.05 ± 317.79 mm^3
same,Tumor growth inhibition rate (%),[2]; D17 after administration,11.62%
same,TGI (%),[3],85.19%
same,Tumor Volume (mm^3) (x ± S),[3],145.94 ± 19.72 mm^3
